The test system of series [1] is Incap. In words: MTT cancer cell growth inhibition. The conditions noted are these: 72 h. In kind it is cell-based.
Series [2] concerns the target T1, HDAC7 (Homo sapiens, UniProt Q8WUI4).
T1 sequence (Q8WUI4 1-952): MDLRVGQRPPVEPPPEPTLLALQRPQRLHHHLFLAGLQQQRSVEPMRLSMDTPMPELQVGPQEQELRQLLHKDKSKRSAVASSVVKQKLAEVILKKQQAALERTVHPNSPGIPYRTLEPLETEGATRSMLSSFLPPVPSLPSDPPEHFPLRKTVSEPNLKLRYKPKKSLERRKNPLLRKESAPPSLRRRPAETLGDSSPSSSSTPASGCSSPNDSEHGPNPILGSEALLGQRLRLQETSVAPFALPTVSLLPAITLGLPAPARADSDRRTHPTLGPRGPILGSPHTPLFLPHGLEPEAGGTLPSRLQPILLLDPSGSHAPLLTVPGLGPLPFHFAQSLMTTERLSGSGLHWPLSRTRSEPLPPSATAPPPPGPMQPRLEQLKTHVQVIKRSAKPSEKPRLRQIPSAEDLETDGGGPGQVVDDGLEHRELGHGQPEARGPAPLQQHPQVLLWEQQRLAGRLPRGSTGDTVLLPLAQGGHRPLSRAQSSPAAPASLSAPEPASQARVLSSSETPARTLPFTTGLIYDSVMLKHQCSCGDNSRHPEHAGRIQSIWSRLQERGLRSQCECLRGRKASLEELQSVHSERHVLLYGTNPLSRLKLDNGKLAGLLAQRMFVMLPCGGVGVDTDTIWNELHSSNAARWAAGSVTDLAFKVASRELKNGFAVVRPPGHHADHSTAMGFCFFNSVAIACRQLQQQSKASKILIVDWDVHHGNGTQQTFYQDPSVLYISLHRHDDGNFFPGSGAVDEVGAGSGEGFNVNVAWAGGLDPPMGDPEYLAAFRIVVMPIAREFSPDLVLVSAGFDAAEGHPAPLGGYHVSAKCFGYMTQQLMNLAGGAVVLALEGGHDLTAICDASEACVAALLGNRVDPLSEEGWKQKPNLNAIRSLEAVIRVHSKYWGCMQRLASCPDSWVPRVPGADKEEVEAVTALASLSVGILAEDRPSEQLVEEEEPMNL
In words: Measurement of biochemical activities of HDAC (fluorescently-labeled acetylated lysine substrate). The essentials:
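For both HDAC isoforms, fluorescent acetyl-lysine substrate ([…] in reaction) incubated with enzyme and compounds for 30 min at 37; developer then added for 15 min at room temperature. Fluorescence read at excitation 360 nm, emission 460 nm.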

Series [3] has as its system human colon cancer HCT-116. In words: Subcutaneously transplanted tumors in nude mice. The conditions noted are these: for 1-T/C tumor inhibition rate / TV (mean ± SD) d0 / Weight d0 / RTV (mean ± SD) / TV (mean ± SD) d21: Table 2.1, 20 mg/kg q3d × 3w iv; for 1-T/C tumor inhibition rate: after three weeks; for RTV (mean ± SD) / TV (mean ± SD) d21: d21; for Tumor Volume TV (mean ± SD) d 0 / Tumor Volume TV (mean ± SD) d 3 / Tumor Volume TV (mean ± SD) d 7 / Tumor Volume TV (mean ± SD) d 10 / Tumor Volume TV (mean ± SD) d 14 / Tumor Volume TV (mean ± SD) d 17: Table 2.2; for Tumor Volume TV (mean ± SD) d 0 / Tumor Volume TV (mean ± SD) d 3 / Tumor Volume TV (mean ± SD) d 7 / Tumor Volume TV (mean ± SD) d 10 / Tumor Volume TV (mean ± SD) d 14 / Tumor Volume TV (mean ± SD) d 17 / Weight (mean ± SD) d 0 / Weight (mean ± SD) d 3 / Weight (mean ± SD) d 7 / Weight (mean ± SD) d 10 / Weight (mean ± SD) d 14 / Weight (mean ± SD) d 17 / Weight (mean ± SD) d 21: 20 mg/kg; for Weight (mean ± SD) d 0 / Weight (mean ± SD) d 3 / Weight (mean ± SD) d 7 / Weight (mean ± SD) d 10 / Weight (mean ± SD) d 14 / Weight (mean ± SD) d 17 / Weight (mean ± SD) d 21: Table 2.3. It counts as in vivo, BALB/cA nude mice. The arrangement: key to RTV (mean ± SD): RTV = Vt/V0, tumor volume at time t over volume at d0. On the procedure:
The solvents are isopropanol and anhydrous ethanol (mixed in the volume ratio of 1:1). The test sample is dissolved with solvents and physiological saline in the ratio of 1:1 for use, and the above solvents and physiological saline are dissolved in the ratio of 1:1 as a negative control.
The number of mice in each group: 12 mice in the negative control group, and 6 mice in the administration group.
The cell strains are inoculated to the right axilla subcutaneous layer of the nude mice, with 5×10^6 per mouse. After formed, the transplanted tumors are passed down two generations in the nude mice and then used.
Tumor tissues in the vigorous growth period are cut into about 1.5 mm^3, and inoculated to the right axilla subcutaneous layer of the nude mice under aseptic conditions. For the subcutaneously transplanted tumors of the nude mice, the diameter of the transplanted tumors is measured by a vernier caliper. The mice are randomly grouped after the tumors grow to 100-200 mm^3. […] The diameter of the transplanted tumors is measured twice per week in the whole experimental process, and meanwhile the weight of the mice is weighed. The calculation formula of tumor volume (TV) is TV=½×a×b^2, where a and b represent length and width, respectively.
The relative tumor volume (RTV) is calculated according to the measured results, with the following calculation formula: RTV=Vt/V0, where V0 is the tumor volume obtained by measurement during administration in different cages (i.e., d0), Vt is the tumor volume obtained by measurement at each time. […] (Wc−WT)Wc×100%, where Wc is the tumor weight of the control group, and WT is the tumor weight of the treatment group.

The structures appear in SMILES notation.

Usually GI50 stands for the concentration at which growth is held to half of that of the control.

In series [1], `C/C=C1\NC(=O)c2csc(n2)CNC(=O)C[C@@H](/C=C/CCSC(=O)CCCCCCC)OC(=O)[C@H](C)NC1=O` [Compound 1-4] gave a GI50 of 200 nM. In addition, the “IC50 HDAC7” value in series [2] is given as “no activity”. In addition, in series [3], the “1-T/C tumor inhibition rate” value came to 74.46%, the “TV (mean ± SD) d0” value is given as 116 ± 23 mm^3, the “Weight d0” value stood at 16.6 g and the “RTV (mean ± SD)” value is 2.65 ± 1.70. For the same compound, in series [3], the “TV (mean ± SD) d21” value stood at 308 ± 198 mm^3, the “Tumor Volume TV (mean ± SD) d 0” value worked out at 118 ± 23 mm^3, the “Tumor Volume TV (mean ± SD) d 3” value turned out to be 126 ± 12 mm^3 and the “Tumor Volume TV (mean ± SD) d 7” value is 157 ± 26 mm^3. For the same compound, in series [3], the “Tumor Volume TV (mean ± SD) d 10” value is reported as 189 ± 52 mm^3, the “Tumor Volume TV (mean ± SD) d 14” value was 234 ± 103 mm^3, the “Tumor Volume TV (mean ± SD) d 17” value amounted to 262 ± 132 mm^3 and the “Weight (mean ± SD) d 0” value is 16.6 ± 1.2 g. In series [3], the “Weight (mean ± SD) d 3” value worked out at 16.2 ± 1.4 g, the “Weight (mean ± SD) d 7” value is given as 14.8 ± 1.2 g, the “Weight (mean ± SD) d 10” value is 14.5 ± 1.0 g and the “Weight (mean ± SD) d 14” value is 13.8 ± 0.9 g. In series [3], the “Weight (mean ± SD) d 17” value was determined as 13.3 ± 0.9 g and the “Weight (mean ± SD) d 21” value came out at 13.0 ± 1.0 g.

Compound `C/C=C1\NC(=O)c2csc(n2)CNC(=O)C[C@@H](/C=C/CCSC(=O)CCCCCCC)OC(=O)[C@H](C(C)(C)C)NC1=O` [Compound 1-6] yielded a GI50 in series [1] of 1200 nM. The “IC50 HDAC7” value in series [2] is listed as “no activity”. Moreover, in series [3], the “1-T/C tumor inhibition rate” value is recorded as 74.09%, the “TV (mean ± SD) d0” value was 121 ± 28 mm^3, the “Weight d0” value is 16.9 g and the “RTV (mean ± SD)” value is reported as 2.69 ± 1.82. For the same compound, in series [3], the “TV (mean ± SD) d21” value turned out to be 326 ± 221 mm^3, the “Tumor Volume TV (mean ± SD) d 0” value was 120 ± 28 mm^3, the “Tumor Volume TV (mean ± SD) d 3” value stood at 129 ± 15 mm^3 and the “Tumor Volume TV (mean ± SD) d 7” value is given as 156 ± 23 mm^3. Also, in series [3], the “Tumor Volume TV (mean ± SD) d 10” value was 195 ± 58 mm^3, the “Tumor Volume TV (mean ± SD) d 14” value is on record as 249 ± 110 mm^3, the “Tumor Volume TV (mean ± SD) d 17” value amounted to 265 ± 122 mm^3 and the “Weight (mean ± SD) d 0” value was 16.9 ± 1.0 g. Also, in series [3], the “Weight (mean ± SD) d 3” value stood at 16.6 ± 1.8 g, the “Weight (mean ± SD) d 7” value turned out to be 15.9 ± 1.6 g, the “Weight (mean ± SD) d 10” value worked out at 15.5 ± 1.6 g and the “Weight (mean ± SD) d 14” value was found to be 14.8 ± 1.8 g. Besides, in series [3], the “Weight (mean ± SD) d 17” value was 14.2 ± 1.7 g and the “Weight (mean ± SD) d 21” value is recorded as 13.1 ± 1.6 g.

In the case of `C/C=C1\NC(=O)c2csc(n2)CNC(=O)C[C@@H](/C=C/CCSC(=O)CCCCCCC)OC(=O)[C@H](Cc2ccccc2)NC1=O` [Compound 1-7], in series [1], the GI50 came to 500 nM. In series [2], the “IC50 HDAC7” value is given as “no activity”. Moreover, in series [3], the “1-T/C tumor inhibition rate” value is on record as 72.24%, the “TV (mean ± SD) d0” value was 115 ± 20 mm^3, the “Weight d0” value was 16.6 g and the “RTV (mean ± SD)” value is 2.89 ± 1.62. Also, in series [3], the “TV (mean ± SD) d21” value was 332 ± 186 mm^3, the “Tumor Volume TV (mean ± SD) d 0” value is listed as 116 ± 21 mm^3, the “Tumor Volume TV (mean ± SD) d 3” value is 131 ± 11 mm^3 and the “Tumor Volume TV (mean ± SD) d 7” value came out at 158 ± 26 mm^3. Besides, in series [3], the “Tumor Volume TV (mean ± SD) d 10” value worked out at 199 ± 68 mm^3, the “Tumor Volume TV (mean ± SD) d 14” value was 245 ± 107 mm^3, the “Tumor Volume TV (mean ± SD) d 17” value amounted to 275 ± 132 mm^3 and the “Weight (mean ± SD) d 0” value came to 16.6 ± 1.1 g. Besides, in series [3], the “Weight (mean ± SD) d 3” value is 15.9 ± 0.7 g, the “Weight (mean ± SD) d 7” value is given as 15.1 ± 0.9 g, the “Weight (mean ± SD) d 10” value stood at 14.5 ± 1.2 g and the “Weight (mean ± SD) d 14” value is reported as 14.0 ± 1.0 g. In addition, in series [3], the “Weight (mean ± SD) d 17” value was 13.5 ± 1.0 g and the “Weight (mean ± SD) d 21” value stood at 13.2 ± 1.0 g.

In series [1], `C/C=C1\NC(=O)c2csc(n2)CNC(=O)C[C@@H](/C=C/CCSC(=O)CCCCCCC)OC(=O)[C@H](Cc2ccc(O)cc2)NC1=O` [Compound 1-8] yielded a GI50 of 200 nM. Besides, the “IC50 HDAC7” value in series [2] is reported as “no activity”. In series [3], the “1-T/C tumor inhibition rate” value stood at 69.49%, the “TV (mean ± SD) d0” value amounted to 116 ± 22 mm^3, the “Weight d0” value came to 16.1 g and the “RTV (mean ± SD)” value was 3.17 ± 2.08. In series [3], the “TV (mean ± SD) d21” value came out at 368 ± 241 mm^3, the “Tumor Volume TV (mean ± SD) d 0” value was found to be 118 ± 22 mm^3, the “Tumor Volume TV (mean ± SD) d 3” value is reported as 139 ± 15 mm^3 and the “Tumor Volume TV (mean ± SD) d 7” value came out at 165 ± 28 mm^3. Moreover, in series [3], the “Tumor Volume TV (mean ± SD) d 10” value is listed as 203 ± 69 mm^3, the “Tumor Volume TV (mean ± SD) d 14” value was determined as 265 ± 127 mm^3, the “Tumor Volume TV (mean ± SD) d 17” value is recorded as 305 ± 142 mm^3 and the “Weight (mean ± SD) d 0” value was found to be 16.3 ± 1.0 g. Moreover, in series [3], the “Weight (mean ± SD) d 3” value is 15.8 ± 1.1 g, the “Weight (mean ± SD) d 7” value was determined as 15.1 ± 0.9 g, the “Weight (mean ± SD) d 10” value is listed as 14.5 ± 1.2 g and the “Weight (mean ± SD) d 14” value stood at 14.0 ± 1.0 g. In series [3], the “Weight (mean ± SD) d 17” value came to 13.5 ± 0.9 g and the “Weight (mean ± SD) d 21” value is 12.9 ± 0.9 g.

(Values after patent US8933195B2, “Histone deacetylase inhibitors and synthetic method thereof and use thereof in manufacture of medicaments” (Nanjing Yoko Biomedical R & D Ltd., priority 2011, dated 2015).)
